From patent publication US20250352500A1, “USE OF PHENOLIC ACIDS DERIVATIVES IN TREATING ISCHEMIC STROKE” (LANZHOU UNIVERSITY, priority 2022, published 2025)

What was measured:
Format in all cases: in vivo, male C57/BL mice
iba1 = iba1 immunofluorescence in brain tissue (microglia); details: 72 h ischemia-reperfusion, three days of administration; compound 2 100 mg/kg, compound 1 50 mg/kg; MCAO group 303±23; mean±SEM, n=3
Description: (§1) Grouping and administration method: Male C57/BL mice weighing 23±1 g were randomly divided into sham operation group (SHAM), model group (MCAO), compound 2 group (100 mg/kg), and compound 1 group (50 mg/kg), with 10 mice in each group. Mice in the SHAM group underwent vascular isolation, but no […] was administered, and no treatment was given before or after surgery. The model group mice were constructed with MCAO models and were not treated before and after surgery. The treatment group was treated with compound 2 or compound 1 on the basis of the model group. Mice with a neurological score of 0 after reperfusion and those that died before 72 hours post-surgery were excluded. […]
Microglia are resident phagocytic cells in the nervous system and are the primary defense system for stress and injury in central nervous cells. […] To investigate whether the compound has an effect on the activation and proliferation of microglia in the ischemia-reperfusion model, this study used immunofluorescence experiments to detect the fluorescence expression of iba1 in the brain tissues of the sham operation group (SHAM), model group (MCAO), compound 2 group, and compound 1 group. Then, the expression level of iba1 in microglia in brain tissue was detected by Western blot. […]

MCAO model mice [1] = test: Zea-Longa neurological function score in MCAO model mice
Description: (§2) Male C57/BL mice weighing 23±1 g were randomly divided into sham operation group (SHAM), model group (MCAO) and drug administration groups (50 mg/kg, 100 mg/kg, 200 mg/kg), with 6 mice in each group. Mice in the SHAM group underwent vascular isolation, but no […] was administered, and no treatment was given before or after surgery. The model group mice were constructed with ischemic MCAO models, and no treatment was given before and after surgery. The drug administration group was treated with compound 2 on the basis of the model group. Mice with a neurological score of 0 after reperfusion and those that died before 72 hours post-surgery were excluded. The drugs were administered through the tail vein at 0, 1, and 2 days after reperfusion. The SHAM group and MCAO group were given equal volumes of saline.
The neurological function score reflects the neurological injury status of MCAO model mice. After 24 hours of modeling, the neurological function score was performed (refer to the Zea-Longa scoring screening method). Mice with scores of 1-3 were successfully modeled, and those with scores of 0 and 4 were excluded.
In this experiment, the Zea-Longa scoring method was used to score the sham hand group (SHAM), model group (MCAO), compound 2 (50 mg/kg) group, compound 2 (100 mg/kg) group, and compound 2 (200 mg/kg) group. The main scoring time points were before surgery, day 1, day 2, and day 3.

MCAO model mice [2] = test: Survival curve after ischemia-reperfusion; details: 100 mg/kg tail vein
Description: (§3) Grouping and administration method: Male C57/BL mice weighing 23±1 g were randomly divided into sham operation group (SHAM), model group (MCAO), compound 2 group (100 mg/kg), and compound 1 group (50 mg/kg), with 10 mice in each group. Mice in the SHAM group underwent vascular isolation, but no […] was administered, and no treatment was given before or after surgery. The model group mice were constructed with MCAO models and were not treated before and after surgery. The treatment group was treated with compound 2 or compound 1 on the basis of the model group. Mice with a neurological score of 0 after reperfusion and those that died before 72 hours post-surgery were excluded. The administration time for animal behavior tests was seven times at 0 h, 1 day, 2 days, 3 days, 4 days, 5 days, and 6 days after reperfusion, while the administration time for other experiments was three times at 0 h, 1 day, and 2 days after reperfusion. The drug was administered through the tail vein, and the sham operation group and model group were given equal amounts of saline.
At the same time, the weight change and survival rate of mice after ischemia-reperfusion were analyzed.

MCAO model mice [3] = test: Modified neurological severity score (mNSS, 14-point scale)
Description: as §3
In addition, the neurological deficit score (mNSS) method shown in the table above was used to score the neurological function of each group of mice on a 14-point scale. Neurobehavioral scores were assessed in mice of the SHAM group, MCAO group, Compound 2 group, and Compound 1 group on day 1, 3, 5, and 7 post-surgery. […]

IL-6 = test: RT-qPCR of IL-6 mRNA in brain tissue; details: 72 h, three days of administration, compound 2 100 mg/kg, P<0.01
Description: as §1
(§4) To investigate the effect of compounds on the expression of inflammatory factors after ischemia-reperfusion, this study used immunofluorescence experiments to observe the expression of TNF-α, IL-1β, IL-6, iNOS, and COX2 proteins in brain tissue. […] The concentrations of TNF-α, IL-1β, and IL-6 in brain homogenate were detected by enzyme-linked immunosorbent assay (ELISA), and the expression level of TNF-α protein in brain tissue was detected by Western blot.
(§5) After 72 hours of ischemia-reperfusion, the mRNA expression levels of TNF-α, IL-1β, IL-6, iNOS, and COX2 in brain tissue were detected and analyzed by RT-qPCR. […]

MCAO model mice [4] = test: Cerebral infarction volume by TTC staining in MCAO model mice; details: for Cerebral infarction volume reduced compared with the model group: mean±SEM
Description: as §2
The cerebral infarction volumes of the sham-hand group (SHAM), model group (MCAO), compound 2 (50 mg/kg) group, compound 2 (100 mg/kg) group, and compound 2 (200 mg/kg) group in Example 2 were detected by TTC staining. […] The cerebral infarction volumes of mice in the different concentration groups were different.

IL-1β = test: RT-qPCR of IL-1β mRNA in brain tissue; details: 72 h, three days of administration, compound 2 100 mg/kg, P<0.01
Description: as §1, §4, §5

SMILES | Number of iba1-positive cells (iba1) | Zea-Longa neurological score compared with the model group (MCAO model mice [1]; 24 hours of reperfusion, 50, 100, 200 mg/kg via tail vein) | Zea-Longa neurological score compared with the model group (MCAO model mice [1]; after 48 hours, 100 mg/kg via tail vein, P<0.001) | Zea-Longa neurological score compared with the model group (MCAO model mice [1]; after 48 hours, three concentrations (50, 100, 200 mg/kg) via tail vein) | Zea-Longa neurological score compared with the model group (MCAO model mice [1]; after 72 hours of reperfusion, 100 mg/kg via tail vein, P<0.001) | Mortality rate (survival curve) compared with MCAO group (MCAO model mice [2]) | Neurological function (mNSS 14-point scale) compared with the compound 1 group (MCAO model mice [3]; compound 2 100 mg/kg vs compound 1 50 mg/kg) | Neurological function (mNSS 14-point scale) compared with MCAO group (MCAO model mice [3]; day 1 to day 7 of reperfusion, 100 mg/kg tail vein) | Decrease of IL-6 mRNA expression compared with MCAO group (IL-6) [%] | Cerebral infarction volume reduced compared with the model group (MCAO model mice [4]; 100 mg/kg via tail vein at 0, 1, 2 days after reperfusion, P<0.001) [%] | Cerebral infarction volume smaller at 100 mg/kg compared with 50 mg/kg (MCAO model mice [4]; 100 mg/kg vs 50 mg/kg of compound 2, mean±SEM, P<0.05) [%] | Cerebral infarction volume reduced compared with the model group (MCAO model mice [4]; 200 mg/kg via tail vein at 0, 1, 2 days after reperfusion, P<0.05) [%] | IL-1β mRNA expression compared with MCAO group (IL-1β)
O=C(O)c1cc(O)ccc1O [compound 1] | 200±12 /mm^2 |  |  |  |  |  |  |  |  |  |  |  | 
O=C(O)c1cc(OP(=O)(O)O)ccc1OP(=O)(O)O [compound 2] | 148±40 /mm^2 | no significant difference | most significant decrease | decreased significantly | significantly decreased | significantly improved the mortality rate | significantly improved | improved significantly | 51±8 | 27.17±5.18 | 26.22±4.68 | 16.19±3.56 | significantly reduced
